We go through 9 molecules from paper PMC12147132 (2025).

Experiment [1] concerns AD-aptamer subunits L1F + L2Q (DNA, aptamer) ATAACGCATTTTGTTATGCGGAGGAAGGTAT/AATGCGTTATTAGAATT/ATACCTGGGGGAGTATTAACATGTTCCATCTT/TTAAATCAAGATGGAAC
Kind of experiment: not given in the source (Figure S2).

Experiment [2] has the same test system. Kind of experiment: not stated in material (Figure S4).
Experiment [3] concerns D1/D2 (AD-stabilized Mg2+-dependent DNAzyme; same sequences as constituent AB') (DNA, aptamer) GTCCTCAGCGATTACTATGCGGAGGAAGGTAT/ATACCTGGGGGAGTATTAGTACACCCATGTTCCTGA
Description: DNAzyme substrate cleavage fluorescence. As to conditions: qualitative, AD 3-5 mM with ADA present.

For experiment [4], the system named is AA' (DNA, aptamer) GTCCTCAGCGATTACTATGCGGAGGAAGGTAT/ATACCTGGGGGAGTATTAGTACACCCATGTTTCAGT
Description: DNAzyme substrate cleavage fluorescence. As to conditions: Mg2+; qualitative; AD 4-5 mM with ADA present.

The test system of experiment [5] is BA' (DNA, aptamer) CTGTTCAGCGATTACTATGCGGAGGAAGGTAT/ATACCTGGGGGAGTATTAGTACACCCATGTTTCAGT
Description: DNAzyme substrate cleavage fluorescence. As to conditions: Mg2+; qualitative; AD 4-5 mM with ADA present.

In experiment [6] the test system is BB' (DNA, aptamer) CTGTTCAGCGATTACTATGCGGAGGAAGGTAT/ATACCTGGGGGAGTATTAGTACACCCATGTTCCTGA
Description: DNAzyme substrate cleavage fluorescence. As to conditions: Mg2+; qualitative; AD 4-5 mM with ADA present.

The mark [7] stands for this setting: highest concentration not in material.

SMILES strings stand for the structures.

For the molecule `Cc1cn([C@H]2C[C@H](O)[C@@H](COP(=O)(O)OP(=O)(O)OP(=O)(O)O)O2)c(=O)[nH]c1=O`, the binding entry in experiment [1] (setting [7]) was “no”.
Take `Nc1ccn([C@@H]2O[C@H](COP(=O)(O)OP(=O)(O)OP(=O)(O)O)[C@@H](O)[C@H]2O)c(=O)n1`: the binding entry in experiment [1] (setting [7]) is reported as “no”.
In the case of `Nc1nc2c(ncn2[C@@H]2O[C@H](COP(=O)(O)OP(=O)(O)OP(=O)(O)O)[C@@H](O)[C@H]2O)c(=O)[nH]1`, in experiment [1] (setting [7]), the binding entry is given as “no”.
With `Nc1ncnc2c1ncn2[C@@H]1O[C@H](CO)[C@@H](O)[C@H]1O`, the Kd in experiment [2] (not perturbed by ADA or inosine) is 11.8 ± 2.3 µM. For the same molecule, the binding entry in experiment [3], in experiment [4], in experiment [5] and in experiment [6] was “yes” throughout.
For `Nc1ncnc2c1ncn2[C@@H]1O[C@H](COP(=O)(O)O)[C@@H](O)[C@H]1O`, the binding entry in experiment [1] (qualitative) is “yes”.
In the case of `Nc1ncnc2c1ncn2[C@@H]1O[C@H](COP(=O)(O)OP(=O)(O)O)[C@@H](O)[C@H]1O`, the binding result in experiment [1] (qualitative) is listed as “yes”.
Take `Nc1ncnc2c1ncn2[C@@H]1O[C@H](COP(=O)(O)OP(=O)(O)OP(=O)(O)O)[C@@H](O)[C@H]1O`: the binding result in experiment [1] (qualitative) was “yes”.
`O=c1[nH]cnc2c1ncn2[C@@H]1O[C@H](CO)[C@@H](O)[C@H]1O`: in experiment [2] (setting [7]), the binding result is given as “no”.
Regarding `O=c1ccn([C@@H]2O[C@H](COP(=O)(O)OP(=O)(O)OP(=O)(O)O)[C@@H](O)[C@H]2O)c(=O)[nH]1`, the binding entry in experiment [1] (setting [7]) is given as “no”.

In general, Kd refers to a measure of binding affinity in units of concentration.
